Experimental data from patent US7851637B2, “Compounds and methods for inhibiting the interaction of BCL proteins with binding partners” (Infinity Pharmaceuticals, Inc., priority 2004, dated 2010).
pIC50, pKi: −log10 of the molar value. Read-outs that look alike come from different tables or passages of the source.

Legend:
[1] = test system: Human Pancreatic Cancer Cell Line Panc1; assay: Cell death assay (propidium iodide/Hoechst) in Panc1 cells with or without camptothecin; assay type: cell-based; details: 72 hours, % cell death by propidium iodide/Hoechst
Procedure, shortened: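 Panc1 cells, 10,000/well, exposed 72 h at 37 C to compound (29 uM to 0.13 uM, 0.3% DMSO) with or without 3 uM camptothecin. Propidium iodide and Hoechst staining imaged by fluorescence microscopy; % cell death = PI-stained/Hoechst-stained cells × 100.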

Bcl-xL = Bcl-xL (Homo sapiens, UniProt Q07817); assay: Bcl-xL binding affinity analysis (fluorescence polarization binding assay); set-up: scale not given here
Procedure, shortened: (§1)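 Sensitive, quantitative cell-free test: compound incubated with protein, then polarization of emitted fluorescence recorded to gauge affinity.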

Bcl-2 = Bcl-2 (Homo sapiens, UniProt P10415); assay: Bcl-2 binding affinity analysis (fluorescence polarization binding assay)
Procedure, shortened: as §1

[2] = test system: RL Human Follicular Lymphoma Cell Line; assay: Alamar blue cytotoxicity assay in RL cells; assay type: cell-based; details: Homo sapiens, 72 h incubation, read-out: Bcl RL Alamar Blue IC50
Procedure, shortened: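 Compounds tested at 29 uM to 0.013 uM final (0.3% DMSO) on 30,000 RL cells per well. After 72 h at 37 C, 5% CO2, viability read with Alamar blue.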

[3] = Homo sapiens, PANC-1, without camptothecin, read-out: Panc1 − Cpt IC50
[4] = with 3 uM Camptothecin, read-out: Panc1 + Cpt IC50

Bcl-2, sequence (P10415 whole entry): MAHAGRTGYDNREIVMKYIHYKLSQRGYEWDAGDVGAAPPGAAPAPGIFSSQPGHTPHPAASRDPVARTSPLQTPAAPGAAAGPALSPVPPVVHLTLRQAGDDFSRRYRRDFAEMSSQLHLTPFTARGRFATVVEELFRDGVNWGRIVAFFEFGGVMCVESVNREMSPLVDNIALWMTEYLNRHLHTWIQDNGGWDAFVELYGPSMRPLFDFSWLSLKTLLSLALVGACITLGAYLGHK
Bcl-xL, sequence (Q07817 whole entry): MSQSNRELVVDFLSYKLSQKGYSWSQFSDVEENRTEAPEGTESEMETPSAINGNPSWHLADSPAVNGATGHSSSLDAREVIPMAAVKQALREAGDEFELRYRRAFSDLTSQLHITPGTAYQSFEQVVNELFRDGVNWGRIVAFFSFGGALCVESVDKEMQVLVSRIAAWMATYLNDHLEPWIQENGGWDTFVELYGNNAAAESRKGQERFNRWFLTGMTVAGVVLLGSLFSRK

| SMILES | pIC50 [1, 3] | pIC50 [1, 4] | Bcl-XL binding affinity Ki (Bcl-xL) | pKi (Bcl-2) | pIC50 [2] |
| --- | --- | --- | --- | --- | --- |
| CC(C)CC(CN(C)C)N(Cc1cccc(CN2OC(CO)C(C(C)O)C2C(=O)NC2CC3CC(C2C)C3(C)C)c1)Cc1c(F)cccc1C(F)(F)F (stereo not drawn) [Compound 339] | < 5.60 | < 5.60 | ♯ | > 6.10 | > 5.70 |
| C[C@@H]1[C@@H](NC(=O)[C@@H]2C([C@H](C)O)[C@H](CO)ON2Cc2cccc(CN(CCN(C)C)Cc3ccccc3Cl)c2)C[C@H]2C[C@@H]1C2(C)C (stereo partly drawn) [Compound 346] | < 5.60 | < 5.60 | ♯ | > 6.10 | 5.30 to 5.70 |
| CC(O)C1C(CO)ON(Cc2cccc(CN(CCN(C)C)Cc3ccccc3Br)c2)C1C(=O)NC1CC2CC(C1C)C2(C)C (stereo not drawn) [Compound 348] | < 5.60 | < 5.60 | ♯ | > 6.10 | < 5.30 |
| CC(O)C1C(CO)ON(Cc2cccc(CN(CCN(C)C)CC3=CCCCC3)c2)C1C(=O)NC1CC2CC(C1C)C2(C)C (stereo not drawn) [Compound 354] | 5.60 to 5.74 | 5.74 to 5.89 | ♯ | > 6.10 | > 5.70 |
| CC(O)C1C(CO)ON(Cc2cccc(CN(CCN(C)C)Cc3ccccc3C(F)(F)F)c2)C1C(=O)NC1CC2CC(C1C)C2(C)C (stereo not drawn) [Compound 357] | < 5.60 | < 5.60 | ♯ | > 6.10 | 5.30 to 5.70 |
| C[C@@H]1[C@@H](NC(=O)[C@@H]2C([C@H](C)O)[C@H](CO)ON2Cc2cccc(CN(CCN(C)C)Cc3ccc(Br)cc3)c2)C[C@H]2C[C@@H]1C2(C)C (stereo partly drawn) [Compound 360] | < 5.60 | < 5.60 | ♯ | > 6.10 | < 5.30 |
| CC(O)C1C(CO)ON(Cc2cccc(CN(CCN(C)C)CC3CCCC3)c2)C1C(=O)NC1CC2CC(C1C)C2(C)C (stereo not drawn) [Compound 363] | < 5.60 | < 5.60 | ♯ | > 6.10 | < 5.30 |
| CC(O)C1C(CO)ON(Cc2cccc(CN(CCN(C)C)Cc3cccc(Br)c3)c2)C1C(=O)NC1CC2CC(C1C)C2(C)C (stereo not drawn) [Compound 366] | 5.60 to 5.74 | 5.60 to 5.74 | ♯ | > 6.10 | 5.30 to 5.70 |
| CC(O)C1C(CO)ON(Cc2cccc(CN(CCN(C)C)Cc3ccc4ccccc4c3)c2)C1C(=O)NC1CC2CC(C1C)C2(C)C (stereo not drawn) [Compound 375] | < 5.60 | < 5.60 | ♯ | > 6.10 | < 5.30 |
| CC(O)C1C(CO)ON(Cc2cccc(CN(CCN(C)C)CC3CC3)c2)C1C(=O)NC1CC2CC(C1C)C2(C)C (stereo not drawn) [Compound 390] | < 5.60 | < 5.60 | ♯ | > 6.10 | < 5.30 |
| CC(O)C1C(CO)ON(Cc2cccc(CN(CCN(C)C)CC3CCOC3)c2)C1C(=O)NC1CC2CC(C1C)C2(C)C (stereo not drawn) [Compound 391] | < 5.60 | < 5.60 | ♯ | > 6.10 | < 5.30 |
| CC(O)C1C(CO)ON(Cc2cccc(CN(CCN(C)C)Cc3ccoc3)c2)C1C(=O)NC1CC2CC(C1C)C2(C)C (stereo not drawn) [Compound 392] | < 5.60 | < 5.60 | ♯ | > 6.10 | < 5.30 |
| CC(O)C1C(CO)ON(Cc2cccc(CN(CCN(C)C)Cc3cccnc3)c2)C1C(=O)NC1CC2CC(C1C)C2(C)C (stereo not drawn) [Compound 393] | < 5.60 | < 5.60 | ♯ | > 6.10 | < 5.30 |
| CC(O)C1C(CO)ON(Cc2cccc(CN(CCN(C)C)Cc3ccccc3I)c2)C1C(=O)NC1CC2CC(C1C)C2(C)C (stereo not drawn) [Compound 394] | < 5.60 | < 5.60 | ♯ | > 6.10 | > 5.70 |
| CC(O)C1C(CO)ON(Cc2cccc(CN(CCN(C)C)Cc3nccs3)c2)C1C(=O)NC1CC2CC(C1C)C2(C)C (stereo not drawn) [Compound 395] | < 5.60 | < 5.60 | ♯ | > 6.10 | < 5.30 |
| CC(O)C1C(CO)ON(Cc2cccc(CN(CCN(C)C)Cc3ccc([N+](=O)[O-])cc3)c2)C1C(=O)NC1CC2CC(C1C)C2(C)C (stereo not drawn) [Compound 396] | < 5.60 | < 5.60 | ♯ | > 6.10 | < 5.30 |
| Cc1cccc(CN(CCN(C)C)Cc2cccc(CN3OC(CO)C(C(C)O)C3C(=O)NC3CC4CC(C3C)C4(C)C)c2)c1 (stereo not drawn) [Compound 399] | < 5.60 | < 5.60 | ♯ | > 6.10 | 5.30 to 5.70 |
| CC(O)C1C(CO)ON(Cc2cccc(CN(CCN(C)C)Cc3cccc(-c4ccccc4)c3)c2)C1C(=O)NC1CC2CC(C1C)C2(C)C (stereo not drawn) [Compound 402] | < 5.60 | < 5.60 | ♯ | > 6.10 | > 5.70 |
| CC(O)C1C(CO)ON(Cc2cccc(CN(CCN(C)C)Cc3c(F)cccc3C(F)(F)F)c2)C1C(=O)NC1CC2CC(C1C)C2(C)C (stereo not drawn) [Compound 412] | < 5.60 | 5.74 to 5.89 | ♯ | > 6.10 | > 5.70 |
| CC(O)C1C(CO)ON(Cc2cccc(CN(CCN(C)C)Cc3ccccn3)c2)C1C(=O)NC1CC2CC(C1C)C2(C)C (stereo not drawn) [Compound 413] | < 5.60 | < 5.60 | ♯ | > 6.10 | < 5.30 |
| CC(O)C1C(CO)ON(Cc2cccc(CN(Cc3ccccc3)C(CN(C)C)CC(C)(C)C)c2)C1C(=O)NC1CC2CC(C1C)C2(C)C (stereo not drawn) [Compound 414] | < 5.60 | 5.60 to 5.74 | ♯ | > 6.10 | 5.30 to 5.70 |
| CC(C)C(CN(C)C)N(Cc1ccccc1)Cc1cccc(CN2OC(CO)C(C(C)O)C2C(=O)NC2CC3CC(C2C)C3(C)C)c1 (stereo not drawn) [Compound 415] | < 5.60 | < 5.60 | ♯ | > 6.10 | 5.30 to 5.70 |
| CC(O)C1C(CO)ON(Cc2cccc(CN(Cc3ccccc3)C(CN(C)C)c3ccccc3)c2)C1C(=O)NC1CC2CC(C1C)C2(C)C (stereo not drawn) [Compound 418] | 5.60 to 5.74 | 5.60 to 5.74 | ♯ | > 6.10 | 5.30 to 5.70 |
| CCN1CCC[C@H]1CN(Cc1ccccc1)Cc1cccc(CN2O[C@@H](CO)C([C@H](C)O)[C@H]2C(=O)N[C@H]2C[C@H]3C[C@@H]([C@@H]2C)C3(C)C)c1 (stereo partly drawn) [Compound 424] | < 5.60 | 5.60 to 5.74 | ♯ | > 6.10 | > 5.70 |
| CC(O)C1C(CO)ON(Cc2cccc(CN(CCN3CCCC3)CC3CCCCC3)c2)C1C(=O)NC1CC2CC(C1C)C2(C)C (stereo not drawn) [Compound 425] | < 5.60 | < 5.60 | ♯ | > 6.10 | > 5.70 |
| CCN(CC)CCN(Cc1ccccc1)Cc1cccc(CN2OC(CO)C(C(C)O)C2C(=O)NC2CC3CC(C2C)C3(C)C)c1 (stereo not drawn) [Compound 428] | < 5.60 | < 5.60 | ♯ | > 6.10 | < 5.30 |
| CC(O)C1C(CO)ON(Cc2cccc(CN(Cc3ccccc3)C(C)CN(C)C)c2)C1C(=O)NC1CC2CC(C1C)C2(C)C (stereo not drawn) [Compound 431] | < 5.60 | < 5.60 | ♯ | > 6.10 | < 5.30 |
